Data taken from paper PMC6978316, “Development of chimeric peptides to facilitate the neutralisation of lipopolysaccharides during bactericidal targeting of multidrug-resistant Escherichia coli” (Communications Biology, 2020).
Where a SMILES comes first, the peptide text is derived from it. Bridges are numbered along the chain shown (N, C = ends).

Key:
NF-κB p-p65 subunit = assay: Western blotting of lung tissues, p-p65/p65; type: in vivo, mice; details: for densitometric analysis of p-p65/p65 ratio: LPS + substance, Mean; for inhibition of LPS-induced translocation of the NF-κB p-p65 subunit: lung tissue 8 h, LPS 13.5 mg per kg, western blotting, densitometry
Protocol: (§1) Additionally, the mice were sacrificed at 8 h and the lung tissues were homogenized and suspended in […] HEPES buffer for 20 min according to standard procedures. After centrifugation at 4 °C for 20 min (12,000 rpm), the protein levels of supernatants were quantified using a Bradford protein assay kit. A total of 30 μg proteins were analyzed on an 8–12% sodium dodecyl sulfate-polyacrylamide gel electrophoresis (SDS-PAGE) gel and were immunoblotted onto PVDF membranes, followed by an incubation with the primary antibodies of p65, p-p65, extracellular signal-regulated kinase (ERK)1/2, p-ERK1/2, and IκBα overnight at 4 °C. After washing, the blots were incubated with the peroxidase conjugated goat-rabbit or goat-mouse antibodies. Relative protein expression levels were quantified by a densitometric measurement of chemiluminescence (ECL) reaction band. β-actin was used as the internal reference.

MDR E. coli CVCC195 = assay: SEM and TEM, cell morphology and ultrastructure; type: cell-based, Escherichia coli; details: E. coli CVCC195, 4 × MIC, 2 h; at least 200 cells scored; manuscript lines quoted in the peer review file
Protocol: SEM was used to examine the ultrastructural changes in bacteria treated with peptides. […] PBS was used as the negative control. After centrifugation, the bacterial precipitation was added with 2.5% glutaraldehyde and the cells were fixed at 4 °C for 24 h. After ethanol dehydration, drying and coating, samples were visualized by a QUANTA200 SEM (FEI, Philips, Netherlands)[65].
The processing and preparation of TEM samples was similar to that of SEM until glutaraldehyde fixation. After washing with PBS, bacterial cells were fixed in 1% […] buffer for 1 h, dehydrated in a series of acetone (50–100%) and embedded, followed by preparation into ultra-thin sections and staining with 1% uranyl acetate. […] At least 200 bacterial cells were visualized and scored for the observed characteristics.

IκBα = assay: Western blotting of lung tissues, IκBα/β-actin; type: in vivo, mice; details: for densitometric analysis of IκBα/β-actin ratio: LPS + substance, Mean; for effect on LPS-induced IκBα levels: lung tissue 8 h, LPS 13.5 mg per kg, western blotting
Protocol: as §1

[1] = tested on: TNF-α, IL-6 and IL-10 in LPS-stimulated RAW 264.7 cells; assay: Cytokines in LPS-stimulated macrophages (ELISA); type: cell-based, mouse; set-up: unit not given here
Protocol: Macrophages RAW 264.7 were incubated with LPS (0.1 and 1 μg per ml) that was dissolved in serum-free DMEM medium, and then were treated with A6, G6, N6, or PMB (20 μM) alone in 24-well plates (2.5 × 10^5 cells per well). The cells incubated with serum-free DMEM and LPS were used as a control. After treatment for 2 h, the supernatants were collected and assessed for TNF-α, IL-6, and IL-10 by using the ELISA kits in the Jiaxuan Biotech. Co. Ltd. (Beijing, China).
73 Supplementary Figure 15. Effects of SCPs on cytokines in RAW 264.7 ells. Cells were incubated with 0.1 μg per
74 ml (a) or 1 μg per ml (b) LPS and 20 μM A6, G6, N6 or PMB for 2 h. The levels of TNF-α, IL-6 and IL-10 in
75 supernatants were measured using ELISA. The data are given as the mean ± SD (n = 3 independent experiments).
76 Different lower case letters indicate a significant difference between two groups (p < 0.05).
(1 picture or pasted object on this page, not shown here)

E. coli CVCC195 = type: cell-based, Escherichia coli; details: E. coli CVCC195
Protocol: Bacterial resistance against the peptides was assessed via the MIC assays. […] After 16–18 h of incubation at 37 °C, cells from the second highest concentration showing visible growth were used to inoculate the subsequent cultures. The MIC values for drug passage cultures were obtained as described above. This process was repeated for 30 d.

ERK1/2 phosphorylation = assay: Western blotting of lung tissues, p-ERK1/2/ERK1/2; type: in vivo, mice; details: for densitometric analysis of p-ERK1/2/ERK1/2 ratio: LPS + substance, Mean; for attenuation of ERK1/2 phosphorylation: lung tissue 8 h, LPS 13.5 mg per kg, western blotting, densitometry
Protocol: as §1

[2] = tested on: binding of FITC-labeled LPS to RAW 264.7 cells; assay: Binding of FITC-labeled LPS to macrophages (flow cytometry); type: cell-based, mouse; details: FITC-LPS 100 μg per ml, 0.1 μM peptide 1 h
Protocol: Similarly, after an incubation with FITC-labeled LPS and washing with medium, cells were incubated with rhodamine-labeled A6 or G6 (0.1 μM) at 37 °C for 1 h. After washing again, the effects of peptides on the binding of FITC-labeled LPS to the cells were analyzed by CLSM and flow cytometry, respectively.

binding of LPS to LBP = assay: Binding of LPS to LBP on LPS-immobilized plate (ELISA); type: biochemical; details: mean of n = 3
Protocol: The 96-well microtiter plates were coated with 4 ng per ml LPS (0.1 M Na2CO3 and 20 mM EDTA, pH 9.6, 50 μl per well) overnight at 4 °C, washed three times with PBST, and blocked with PBS (containing 1% BSA) for 2 h. After washing with PBST again, the plates were incubated at 37 °C for 1 h with different concentrations of peptides (A6, G6, or N6), which were dissolved in Dulbecco's Modified Eagle's (DMEM) medium (containing 10% FBS). After washing, cells were incubated with anti-LBP mAb 6G3 (ThermoFisher) for 1 h at 37 °C and HRP-conjugated rabbit anti-mouse IgG for 1 h at room temperature, respectively. Tetramethylbenzidine (TMB) solution was then added and incubated for 25–30 min. Finally, the reaction was stopped by addition of 0.5 M H2SO4, and the absorbance was measured at 450 nm[50].

LPS-induced lung injury = assay: Protection of lung tissues from LPS (histology); type: in vivo; details: LPS-challenged mice, 0.25 μmol per kg
Protocol: The mice were treated with N6 (0.25 μmol per kg), A6 (0.25 μmol per kg), G6 (0.25 μmol per kg), and PMB (10 μmol per kg), respectively after the intraperitoneal injection of LPS at a concentration of LD100. The lung tissues were taken at 1 d and 6 d, respectively, washed with PBS and placed in 4% paraformaldehyde for 24 h at 4 °C. After washing with PBS, the tissues were dehydrated by a series of different concentrations of ethanol (75%, 85%, 90%, and 95%) and were immersed in xylene for paraffin embedding. After sectioning, the samples were stained with hematoxylin and were observed by a light microscope. The mice challenged with LPS and PBS served as the negative and blank control, respectively.

[3] = RAW 264.7 cells incubated with 0.1 μg per ml LPS
[4] = RAW 264.7 cells incubated with 1 μg per ml LPS
[5] = 0.625 μM, LPS-coated plate, peptide in DMEM + 10% FBS, 37 °C, 1 h, anti-LBP mAb, OD450

Compound	densitometric analysis of p-p65/p65 ratio (NF-κB p-p65 subunit)	inhibition of LPS-induced translocation of the NF-κB p-p65 subunit (NF-κB p-p65 subunit) [%]	abnormal cells in TEM (lysis, non-uniform cytoplasmic electron and morphologically abnormal cells) (MDR E. coli CVCC195) [%]	densitometric analysis of IκBα/β-actin ratio (IκBα)	effect on LPS-induced IκBα levels (IκBα)	IL-6 Mean [1, 3]	IL-10 Mean [1, 3]	TNFα Mean [1, 3]	IL-6 Mean [1, 4]	IL-10 Mean [1, 4]	TNFα Mean [1, 4]	densitometric analysis of p-ERK1/2/ERK1/2 ratio (ERK1/2 phosphorylation)	attenuation of ERK1/2 phosphorylation (ERK1/2 phosphorylation)	inhibition rate of FITC-labeled LPS binding to RAW 264.7 cells [2] [%]	LPS-LBP binding (relative), Mean (binding of LPS to LBP; [5])	LPS-LBP binding (relative), Mean (binding of LPS to LBP; 1.25 μM)	LPS-LBP binding (relative), Mean (binding of LPS to LBP; 2.5 μM)	LPS-LBP binding (relative), Mean (binding of LPS to LBP; 5 μM)	LPS-LBP binding (relative), Mean (binding of LPS to LBP; 10 μM)	LPS-LBP binding (relative), Mean (binding of LPS to LBP; 20 μM)	further results
polymyxin B [PMB]	0.01553	98.4	1	1.0324	promoted LPS-induced IκBα levels	311.767	122.2	546.867	278.7	116.9	447.633	1.579	moderately promoted the ERK1/2 phosphorylation	13.5	0.8274	0.5768	0.4491	0.3343	0.393	0.3466	change of MIC over the course of 30 serial passages (E. coli CVCC195): hardly changed; LPS-LBP binding (relative), Mean (binding of LPS to LBP; 40 μM): 0.2168
CC(C)[C@@H]1NC(=O)CNC(=O)[C@H](CC(N)=O)NC(=O)[C@H](CCCNC(=N)N)NC(=O)[C@H](Cc2ccc(O)cc2)NC(=O)[C@H](C(C)C)NC(=O)[C@@H](NC(=O)[C@@H](NC(=O)[C@H](CC(N)=O)NC(=O)[C@H](Cc2c[nH]c3ccccc23)NC(=O)[C@H](C)NC(=O)[C@H](Cc2ccccc2)NC(=O)CN)C(C)C)CSSC[C@@H](C(=O)N[C@@H](Cc2c[nH]cn2)C(=O)N[C@@H](CCCNC(=N)N)C(=O)N[C@@H](CCCNC(=N)N)C(=O)N[C@@H](C)C(=O)N[C@@H](CC(N)=O)C(=O)O)NC(=O)[C@H](C(C)C)NC(=O)[C@H](CCCNC(=N)N)NC1=O [N6] (H-GFAWNVCVYRNGVRVCHRRAN-OH; disulfide 7-16; N-terminus and C-terminus assumed)	0.9793	5	19	1.158	promoted LPS-induced IκBα levels	279.833	106.233	479.8	303.4	118.033	495.967	0.9271	16.1%	8	0.82	1.017	0.8065	0.8105	0.7607	0.6457	lung histology at 1 d (LPS-induced lung injury): partial alleviation of tissue swelling and injury; lung histology at 6 d (LPS-induced lung injury): no pathological changes; LPS-LBP binding (relative), Mean (binding of LPS to LBP; 40 μM): 0.5608
